This note sets out measurements from patent US5965598A, “Zinc-phthalocyanines and corresponding conjugates, their preparation and use in photodynamic therapy and as diagnostic agents” (priority 1997, dated 1999).

In experiment [1] the test system is Branhamella catarrhalis. Put plainly: Photoinactivation of microorganisms: Branhamella catarrhalis. In kind it is cell-based. The settings on record: footnote. As to the method: (§1) The experimental protocol was the following:
(§2) Incubation in dark at 37° C. (5 min to 1 hour).

In experiment [2] the test system is Staphylococcus aureus (ATCC 6538P). As to the kind of experiment: Photoinactivation of microorganisms: Staphylococcus aureus. It counts as cell-based. The settings on record: 1 μM; 15 mW/cm2, 30 min. How it is done: as §1, §2
Experiment [3] concerns E. Coli (strain 04). As to the kind of experiment: Photoinactivation of microorganisms: E. coli. In kind it is cell-based, Escherichia coli (strain 04). To be noted: footnote below the P. aeruginosa / E. coli table. As to the method: as §1, §2

As to `[Zn+2].c1ccc2c(c1)-c1nc-2nc2[n-]c(nc3nc([n-]c4nc(n1)-c1ccccc1-4)-c1ccccc1-3)c1ccccc21` [ZnPC, ZnPhthalocyanine], the “Photoinactivation activity (in words)” value in experiment [1] and in experiment [3] was “not active” each time. In experiment [2], this compound gave a Cell mortality of 99.99.
